Measurements: PMC10847213 (Clinical Pharmacokinetics, 2023)
Entries after “also recorded” stand apart in the source; their conditions may differ. Like-named read-outs stand apart in the source and are kept apart here.

What was measured:
[1] = system: UGT; experiment: Effect of multiple-dose lorlatinib on the pharmacokinetics of acetaminophen; format: in vivo, human
[2] = system: CYP2B6; experiment: Effect of multiple-dose lorlatinib on the pharmacokinetics of bupropion; format: in vivo, human
[3] = system: human lymphoblastoid TK6 cells; settings: cited from earlier work
[4] = system: CYP2B6; settings: in vitro; cited from earlier work
[5] = system: bone marrow of rats; settings: cited from earlier work
[6] = system: CYP2C9; settings: in vitro; cited from earlier work
[7] = system: CYP2C8; settings: in vitro; cited from earlier work
[8] = system: CYP2C19; settings: in vitro; cited from earlier work
[9] = system: CYP3A4/5; settings: cited from earlier work
[10] = after oral administration; cited from earlier work
[11] = system: CYP2D6; settings: in vitro; cited from earlier work
[12] = system: CYP3A4/5; settings: cited from earlier work; remark: listed apart in the source
[13] = system: CYP1A2; settings: in vitro; cited from earlier work
[14] = system: CYP3A4/5; settings: lorlatinib with itraconazole; cited from earlier work
[15] = system: CYP2C9; experiment: Effect of multiple-dose lorlatinib on the pharmacokinetics of tolbutamide; format: in vivo, human; settings: lorlatinib 100 mg QD at steady state; probe tolbutamide
[16] = system: CYP3A4/5; settings: lorlatinib with modafinil; cited from earlier work
[17] = system: P-glycoprotein (P-gp); settings: MDCK II-MDR1 cells, substrate digoxin; cited from earlier work
[18] = system: CYP3A4/5; settings: cited from earlier work; remark: listed apart in the source
[19] = system: plasma proteins; settings: cited from earlier work
[20] = system: bacterial assay; settings: in vitro bacterial assay; cited from earlier work
[21] = system: human pregnane X receptor (PXR); settings: cited from earlier work
[22] = target: P-glycoprotein (P-gp) (Homo sapiens, UniProt P08183); experiment: Effect of multiple-dose lorlatinib on the pharmacokinetics of fexofenadine; format: in vivo; settings: lorlatinib 100 mg QD at steady state; probe fexofenadine
P-glycoprotein (P-gp) (Homo sapiens, UniProt P08183), sequence (P08183 whole entry): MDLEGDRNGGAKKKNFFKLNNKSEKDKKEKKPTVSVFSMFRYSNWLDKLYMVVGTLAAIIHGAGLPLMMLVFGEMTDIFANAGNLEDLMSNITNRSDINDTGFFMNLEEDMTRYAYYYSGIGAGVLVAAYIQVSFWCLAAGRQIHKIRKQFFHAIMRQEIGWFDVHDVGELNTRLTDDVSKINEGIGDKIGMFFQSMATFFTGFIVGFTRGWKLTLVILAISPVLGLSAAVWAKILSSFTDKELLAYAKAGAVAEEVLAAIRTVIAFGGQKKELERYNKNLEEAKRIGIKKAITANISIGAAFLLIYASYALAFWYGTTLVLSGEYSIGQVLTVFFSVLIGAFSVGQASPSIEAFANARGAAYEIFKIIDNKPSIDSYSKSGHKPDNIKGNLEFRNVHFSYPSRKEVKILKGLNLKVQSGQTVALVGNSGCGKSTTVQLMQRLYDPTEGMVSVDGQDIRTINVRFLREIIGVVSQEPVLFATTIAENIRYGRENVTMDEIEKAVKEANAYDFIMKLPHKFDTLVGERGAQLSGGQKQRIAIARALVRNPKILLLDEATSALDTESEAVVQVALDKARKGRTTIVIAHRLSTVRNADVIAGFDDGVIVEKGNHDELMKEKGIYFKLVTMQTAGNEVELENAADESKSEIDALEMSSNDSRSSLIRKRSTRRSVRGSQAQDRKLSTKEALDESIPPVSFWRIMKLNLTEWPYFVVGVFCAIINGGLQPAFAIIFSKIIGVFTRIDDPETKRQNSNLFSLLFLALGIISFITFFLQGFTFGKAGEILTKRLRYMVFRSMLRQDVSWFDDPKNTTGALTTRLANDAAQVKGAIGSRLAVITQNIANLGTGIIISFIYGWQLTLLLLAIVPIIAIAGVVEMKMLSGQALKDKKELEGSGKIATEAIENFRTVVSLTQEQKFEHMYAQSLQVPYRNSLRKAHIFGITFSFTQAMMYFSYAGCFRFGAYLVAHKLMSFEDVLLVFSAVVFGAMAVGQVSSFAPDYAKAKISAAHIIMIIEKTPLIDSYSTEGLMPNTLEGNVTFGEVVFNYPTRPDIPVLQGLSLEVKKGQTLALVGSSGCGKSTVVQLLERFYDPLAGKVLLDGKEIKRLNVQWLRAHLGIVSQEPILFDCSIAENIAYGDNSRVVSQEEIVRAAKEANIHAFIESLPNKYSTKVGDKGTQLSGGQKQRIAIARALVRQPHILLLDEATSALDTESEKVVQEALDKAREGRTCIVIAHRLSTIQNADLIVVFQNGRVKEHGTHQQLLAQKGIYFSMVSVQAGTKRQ

[23] = acetaminophen with lorlatinib 100 mg QD vs acetaminophen alone
[24] = single oral 2-mg dose of midazolam with lorlatinib 150 mg QD

With `CC(=O)Nc1ccc(O)cc1` [Acetaminophen, acetaminophen] the “Decrease in AUC∞” value [1, 23] was 45% and the “Decrease in Cmax” value [1, 23] was 28%.
For `CC(NC(C)(C)C)C(=O)c1cccc(Cl)c1` (stereo not shown) [Bupropion, bupropion], the “Decrease in Cmax” value ([2]; bupropion with lorlatinib 100 mg QD vs bupropion alone) was 27%.
In the case of `C[C@H]1Oc2cc(cnc2N)-c2c(nn(C)c2C#N)CN(C)C(=O)c2ccc(F)cc21` [Lorlatinib, (10R)-7-amino-12-fluoro-2,10,16-trimethyl-15-oxo-10,15,16,17-tetrahydro-2H-8,4-(metheno)pyrazolo[4,3-h][2,5,11]-benzoxadiazacyclotetradecine-3-carbonitrile], the Aneugenicity in vitro [3] is listed as “aneugenic”, the “Inhibition of CYP2B6” value [4] is listed as “do not inhibit” and the Aneugenicity in vivo [5] is listed as “aneugenic”. For the same compound, the “Inhibition of CYP2C9” value [6] was “do not inhibit”, the “Inhibition of CYP2C8” value [7] was “do not inhibit” and the “Inhibition of CYP2C19” value [8] was “do not inhibit”. The “Inducer classification, CYP3A4/5” value ([9]; after multiple dosing, probe midazolam) was “moderate (≥ 50% to < 80%)”, the Bioavailability [10] was 81% and the “Inhibition of CYP2D6” value [11] was “do not inhibit”. For the same compound, the “Effect on CYP3A4/5” value [12] was “time-dependent inhibitor and inducer”, the “Inhibition of CYP1A2” value [13] was “do not inhibit” and the “Increase in AUC∞” value [14] was 42%. For the same compound, the “Increase in Cmax” value [14] was 24%, the “Inducer classification, CYP2C9” value [15] was “weak (≥ 20% to < 50%)” and the “Reduction in AUC∞” value [16] was 23%. The “Reduction in Cmax” value [16] was 22%, the “Inhibition of P-gp efflux” value [17] was “inhibit” and the “Inducer classification, CYP2B6” value ([2]; lorlatinib 100 mg QD at steady state, probe bupropion) was “weak (≥ 20% to < 50%)”. The “Transaminase / liver enzyme levels” value ([18]; coadministration of lorlatinib with rifampin) was “elevated liver enzyme levels; also recorded: rapid elevations in transaminase values”, the “Reduction in Cmax” value ([18]; lorlatinib with rifampin) was 76% and the “Reduction in mean AUC∞” value ([18]; lorlatinib with rifampin) was 85%. For the same compound, the “Binding to plasma proteins” value [19] was 66%, the Mutagenicity [20] was “not mutagenic” and the PXR activation [21] was “activate PXR”. The “Inducer classification, UGT” value ([1]; lorlatinib 100 mg QD at steady state, probe acetaminophen) was “weak (≥ 20% to < 50%)” and the “Inducer classification, P-gp” value [22] was “moderate (≥ 50% to < 80%)”.
For `Cc1ncc2n1-c1ccc(Cl)cc1C(c1ccccc1F)=NC2` [midazolam], the “Decrease in AUC∞” value [9, 24] is listed as 64% and the “Decrease in Cmax” value [9, 24] is listed as 50%.
